The target of one data set is Cruzipain (Trypanosoma cruzi, UniProt P25779). As to the kind of experiment: Inhibition of recombinant Trypanosoma cruzi cruzain using Z-phe-Arg-7-amido-4-methylcoumarin as substrate by fluorometric method.
In data set [1] the target is Cruzipain (Trypanosoma cruzi) (UniProt P25779). As to the kind of experiment: Reversible inhibition of recombinant Trypanosoma cruzi cruzain using Z-phe-Arg-7-amido-4-methylcoumarin as substrate by fluorometric method.
For data set [2] the target is unchanged. The experiment in a line: Inhibition of recombinant Trypanosoma cruzi cruzain assessed as dissociation rate constant using Z-phe-Arg-7-amido-4-methylcoumarin as substrate by fluorometric method.
A further data set concerns Trypanosoma cruzi. The experiment in a line: Antitrypanosomal activity against amastigote form of Trypanosoma cruzi Y infected in human U2OS cells. Type of data set: functional, organism-based.
The nature of data set [3]: Cytotoxicity against human U2OS cells. Type of data set: cell-based.
Data set [4] has as its target Cruzipain (Trypanosoma cruzi) (UniProt P25779). As to the kind of experiment: Ratio of Kinact to Ki for recombinant Trypanosoma cruzi cruzain using Z-phe-Arg-7-amido-4-methylcoumarin as substrate.
The target is the same in data set [5]. The experiment in a line: Irreversible inhibition of recombinant Trypanosoma cruzi cruzain using Z-phe-Arg-7-amido-4-methylcoumarin as substrate by fluorometric method.

This is an account of results in ChEMBL document CHEMBL4177620, “A comparative study of warheads for design of cysteine protease inhibitors” (Bioorg Med Chem Lett, 2017).

Molecules are shown by their SMILES. Calls of active or inactive are those of the source. The calls are words filed in the database; no cut-off is given here. Non-standard residues stand in square brackets, D forms with d. Residues, ends and D or L forms follow the SMILES beside them. *: point of attachment. Cbz = O=C(OCc1ccccc1)*; Ac3c = NC1(C(=O)O)CC1 Some results are limits rather than exact numbers.

Sequence of Cruzipain (Trypanosoma cruzi) (P25779 123-467 limits assumed): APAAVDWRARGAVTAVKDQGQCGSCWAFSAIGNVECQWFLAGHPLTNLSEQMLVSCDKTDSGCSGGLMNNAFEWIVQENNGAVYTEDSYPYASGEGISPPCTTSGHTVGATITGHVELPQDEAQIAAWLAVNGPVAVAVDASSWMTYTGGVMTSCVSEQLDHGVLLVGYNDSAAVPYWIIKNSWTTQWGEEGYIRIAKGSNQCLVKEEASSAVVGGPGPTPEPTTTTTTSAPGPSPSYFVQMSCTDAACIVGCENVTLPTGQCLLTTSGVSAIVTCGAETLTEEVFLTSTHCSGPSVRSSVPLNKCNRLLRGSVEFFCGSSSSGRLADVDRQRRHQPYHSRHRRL
Sequence of Cruzipain (P25779 whole entry): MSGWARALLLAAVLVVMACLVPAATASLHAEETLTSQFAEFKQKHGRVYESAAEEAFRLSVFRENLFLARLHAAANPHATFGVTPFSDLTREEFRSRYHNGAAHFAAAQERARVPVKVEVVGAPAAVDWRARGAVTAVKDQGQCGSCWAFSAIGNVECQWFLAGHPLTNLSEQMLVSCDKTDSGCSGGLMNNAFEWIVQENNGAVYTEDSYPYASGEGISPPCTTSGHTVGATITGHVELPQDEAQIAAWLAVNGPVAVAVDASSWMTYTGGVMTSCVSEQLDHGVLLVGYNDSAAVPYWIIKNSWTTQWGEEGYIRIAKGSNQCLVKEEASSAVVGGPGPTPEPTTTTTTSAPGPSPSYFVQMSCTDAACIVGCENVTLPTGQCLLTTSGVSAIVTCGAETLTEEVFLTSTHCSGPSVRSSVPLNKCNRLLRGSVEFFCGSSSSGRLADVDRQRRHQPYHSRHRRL

Consider `O=CCNC(=O)[C@H](Cc1ccccc1)NC(=O)OCc1ccccc1` (Cbz-Phe-Gly-aldehyde), for which the inhibition constant Ki on Cruzipain is 0.00794 µM. Besides, the inhibition result in data set [1] is “Active”.

With `CCOC(=O)/C=C\CNC(=O)[C@H](Cc1ccccc1)NC(=O)OCc1ccccc1`, on Cruzipain, the inhibition constant (Ki) is 6.31 µM. For the same molecule, in data set [1], the inhibition entry is “Active”.

In the case of `CN(C#N)N(C)C(=O)[C@H](Cc1ccccc1)NC(=O)c1cc(C(C)(C)C)nn1C`, the koff in data set [2] is 0.012 s⁻¹. Further, the Ki on Cruzipain was 0.00158 µM.

Regarding `CN(C#N)N(C)C(=O)[C@H](Cc1ccccc1)NC(=O)OCc1ccccc1`, the response in the data set with Trypanosoma cruzi was half-maximal at 5.01 µM (EC50). The molecule further had a CC50 in data set [3] of 10 µM. The dissociation rate constant (koff) in data set [2] turned out to be 0.011 s⁻¹. In addition, the inhibition constant (Ki) on Cruzipain was 0.002 µM. Further, the inhibition result in data set [1] was “Active”.

Take `CNC(=O)/C=C/C1(NC(=O)[C@H](Cc2ccccc2)NC(=O)OCc2ccccc2)CC1`: on Cruzipain, the inhibition constant Ki was 398 µM. Also, the inhibition result in data set [1] was “Active”.

For `N#CC1(NC(=O)[C@H](Cc2ccccc2)NC(=O)OCc2ccccc2)CC1`, the EC50 with Trypanosoma cruzi was more than 100 µM. For the same molecule, in data set [3], the cytotoxic concentration (CC50) was more than 100 µM. Besides, on Cruzipain, the Ki was 6.31 µM.

For `Cc1coc(NC(=O)[C@H](Cc2ccccc2)NC(=O)OCc2ccccc2)n1`, the EC50 with Trypanosoma cruzi was 39.8 µM. Further, in data set [3], the CC50 was more than 100 µM. The inhibition constant (Ki) at Cruzipain is 25.1 µM.

With `N#CCNC(=O)[C@H](Cc1ccccc1)NC(=O)OCc1ccccc1`, in the data set with Trypanosoma cruzi, the EC50 is more than 100 µM. In data set [3], the CC50 is more than 100 µM. Also, the inhibition entry in data set [1] was “Active”.

Consider `CCOC(=O)/C=C/C1(NC(=O)[C@H](Cc2ccccc2)NC(=O)OCc2ccccc2)CC1`, for which, on Cruzipain, the Ki is 126 µM. The inhibition entry in data set [1] was “Active”.

Regarding `CCN(CC)C(=O)/C=C/C1(NC(=O)[C@H](Cc2ccccc2)NC(=O)OCc2ccccc2)CC1`, the Ki on Cruzipain was 200 µM. Also, in data set [1], the inhibition entry is “Active”.

In the data set with Trypanosoma cruzi, `CC(C)C[C@H](NC(=O)OC(C)(C)C)C(=O)N(C)N(C)C#N` gave a concentration for a half-maximal effect (EC50) of 39.8 µM. In data set [3], the midpoint of cytotoxicity, the CC50, lay at 50.1 µM. For the same molecule, the koff in data set [2] is 0.0053 s⁻¹. The inhibition constant (Ki) on Cruzipain is 0.01 µM. In data set [1], the inhibition entry was “Active”.

In the case of `CC(C)C[C@H](NC(=O)c1cc(C(C)(C)C)nn1C)C(=O)N(C)N(C)C#N`, it took 12.6 µM to reach a half-maximal effect with Trypanosoma cruzi (EC50).

For `CCOC(=O)/C=C/CNC(=O)[C@H](Cc1ccccc1)NC(=O)OCc1ccccc1`, in data set [4], the Ratio turned out to be 9.8 ×10³ /s/M. For the same molecule, at Cruzipain, the Ki was 1.58 µM. Further, in data set [5], the inhibition entry was “Active”.

As for `O=CC1(NC(=O)[C@H](Cc2ccccc2)NC(=O)OCc2ccccc2)CC1` (Cbz-Phe-[Ac3c]-aldehyde), the Ki at Cruzipain was 3.98 µM.

In the case of `O=C(N[C@@H](Cc1ccccc1)C(=O)Nc1cnoc1)OCc1ccccc1`, the concentration for a half-maximal effect (EC50) in the data set with Trypanosoma cruzi is more than 100 µM. In data set [3], this molecule had a 50% cytotoxic concentration (CC50) of more than 100 µM. The Ki on Cruzipain was 10 µM.

For `O=C(N[C@@H](Cc1ccccc1)C(=O)NCC=NO)OCc1ccccc1`, the inhibition constant Ki on Cruzipain was 0.1 µM. The inhibition entry in data set [1] was “Active”.

In general, Ki refers to the dissociation constant of the complex between target and ligand, obtained from inhibition or displacement. As a reminder, the koff is a measure of how fast the partners let go of each other. Broadly, the EC50 is the concentration giving half of the maximal effect. Low values mean a more potent agent, high ones a less potent agent. For orientation: CC50 means the concentration that lowers cell viability or growth by half. Low values mean harm at low concentration, high ones better tolerance by the cells.
